The text below walks through data of patent US10189854B2, “Substituted pyrimidine compounds” (Grünenthal GmbH, priority 2014, dated 2019).

In general, IC50 refers to the concentration at which inhibition is half-maximal. Lower therefore signals greater potency.

Where only a bound is given, the exact number is not on record here.

For this assay, the target named is human PDE4B1 (Homo sapiens (Human), UniProt Q07343). The assay is described as follows: TR-FRET assay using the LANCE Ultra cAMP kit to determine the activity of hPDE4B1. The settings on record: IC50 inhibition of PDE4B, mean. The format is biochemical. In a few lines: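 Recombinant human PDE4B1 (Sf9-expressed, 0.96 U) incubated with compound and 500 nM cAMP in 50 mM Tris-HCl, 50 mM MgCl2, 5 mM DTT, pH 8.5, 30 min at room temperature. Residual cAMP read by TR-FRET (665/620 nm ratio) after IBMX stop. IC50 from ten-concentration curves as % inhibition of control.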
Sequence of human PDE4B1 (Q07343 whole entry): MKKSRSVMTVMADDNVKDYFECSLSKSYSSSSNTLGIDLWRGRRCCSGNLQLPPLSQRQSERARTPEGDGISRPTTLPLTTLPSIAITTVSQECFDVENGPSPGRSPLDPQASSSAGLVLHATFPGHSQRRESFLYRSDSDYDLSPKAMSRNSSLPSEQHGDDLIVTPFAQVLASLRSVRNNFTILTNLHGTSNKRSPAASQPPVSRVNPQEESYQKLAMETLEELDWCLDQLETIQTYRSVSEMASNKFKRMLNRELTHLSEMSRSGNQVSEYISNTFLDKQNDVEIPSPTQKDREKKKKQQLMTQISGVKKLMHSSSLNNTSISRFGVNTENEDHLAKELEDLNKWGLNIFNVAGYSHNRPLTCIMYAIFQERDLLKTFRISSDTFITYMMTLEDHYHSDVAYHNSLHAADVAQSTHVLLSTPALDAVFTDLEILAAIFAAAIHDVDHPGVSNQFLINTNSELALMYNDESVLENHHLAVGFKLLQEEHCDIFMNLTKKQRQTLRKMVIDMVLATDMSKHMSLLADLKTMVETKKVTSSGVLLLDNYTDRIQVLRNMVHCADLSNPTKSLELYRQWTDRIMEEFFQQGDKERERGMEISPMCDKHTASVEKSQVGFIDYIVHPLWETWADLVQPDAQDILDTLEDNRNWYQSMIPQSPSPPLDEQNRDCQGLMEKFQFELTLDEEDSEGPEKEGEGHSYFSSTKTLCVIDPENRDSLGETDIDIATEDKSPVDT
In the case of `CN(CCO)C(=O)c1ccc2c(c1)N(c1ncc(-c3cc(NCC4CC4)ccc3F)cn1)CC21CC1` [Compound 333, 1-[5-[5-(Cyclopropyl-methylamino)-2-fluoro-phenyl]-pyrimidin-2-yl]-N-(2-hydroxy-ethyl)-N-methyl-spiro[1,2-dihydro-indole-3,1′-cyclopropane]-6-carboxylic acid amide], the IC50 is less than 0.1 µM.

Compound `Cc1ccnc(-c2cnc(N3CC4(CC4)c4ccc(C(=O)N5CC[C@@H](N)C5)cc43)nc2)c1` [Compound 334, [(3R)-3-Amino-pyrrolidin-1-yl]-[1-[5-(4-methyl-pyridin-2-yl)-pyrimidin-2-yl]-spiro[1,2-dihydro-indole-3,1′-cyclopropane]-6-yl]-methanone] returned an IC50 of less than 0.1 µM.

For `N[C@@H]1CCN(C(=O)c2ccc3c(c2)N(c2ncc(-c4cc(C5CC5)ccn4)cn2)CC32CC2)C1` [Compound 335, (R)-(3-aminopyrrolidin-1-yl)(1′-(5-(4-cyclopropylpyridin-2-yl)pyrimidin-2-yl)spiro[cyclopropane-1,3′-indolin]-6′-yl)methanone], the IC50 was less than 0.1 µM. Take `O=C(c1ccc2c(c1)N(c1ncc(-c3cc(C4CC4)ccn3)cn1)CC21CC1)N1CCC[C@@H](CO)C1` [Compound 336, [1-[5-(4-Cyclopropyl-pyridin-2-yl)-pyrimidin-2-yl]-spiro[1,2-dihydro-indole-3,1′-cyclopropane]-6-yl]-[(3R)-3-(hydroxymethyl)-piperidin-1-yl]-methanone]: the IC50 was less than 0.1 µM. Next, `CN(CC(N)=O)C(=O)c1ccc2c(c1)N(c1ncc(-c3cc(C4CC4)ccn3)cn1)CC21CC1` [Compound 337, N-(Carbamoyl-methyl)-1-[5-(4-cyclopropyl-pyridin-2-yl)-pyrimidin-2-yl]-N-methyl-spiro[1,2-dihydro-indole-3,1′-cyclopropane]-6-carboxylic acid amide]: less than 0.1 µM. Then `CC(=O)Nc1ccnc(-c2cnc(N3CC4(CC4)c4ccc(C(=O)N5C[C@@H]6C[C@H]5CN6)cc43)nc2)c1` [Compound 338, N-[2-[2-[6-[(1S,4S)-2,5-Diazabicyclo[2.2.1]heptane-2-carbonyl]-spiro[1,2-dihydro-indole-3,1′-cyclopropane]-1-yl]-pyrimidin-5-yl]-pyridin-4-yl]-acetamide], with less than 0.1 µM; and `CN(CCO)C(=O)c1ccc2c(c1)N(c1ncc(-c3nc(CCO)cs3)cn1)CC21CC1` [Compound 339, N-(2-Hydroxy-ethyl)-1-[5-[4-(2-hydroxy-ethyl)-thiaozl-2-yl]-pyrimidin-2-yl]-N-methyl-spiro[1,2-dihydro-indole-3,1′-cyclopropane]-6-carboxylic acid amide], with less than 0.1 µM. In the case of `COc1cnnc(-c2cnc(N3CC4(CC4)c4ccc(C(=O)N(C)CCO)cc43)nc2)c1` [Compound 340, N-(2-Hydroxy-ethyl)-1-[5-(5-methoxy-pyridazin-3-yl)-pyrimidin-2-yl]-N-methyl-spiro[1,2-dihydro-indole-3,1′-cyclopropane]-6-carboxylic acid amide], the IC50 is less than 0.1 µM.

The compound `CC[S+]([O-])c1cccc(-c2cnc(N3CC4(CC4)c4ccc(C(=O)N(C)CCO)cc43)nc2)c1` (centres unmarked) [Compound 341, 1-[5-[3-(Ethylsulfinyl)-phenyl]-pyrimidin-2-yl]-N-(2-hydroxy-ethyl)-N-methyl-spiro[1,2-dihydro-indole-3,1′-cyclopropane]-6-carboxylic acid amide] yielded an IC50 of less than 0.1 µM. Then `CN(CCO)C(=O)c1ccc2c(c1)N(c1ncc(-c3cccc(C[S+](C)[O-])c3)cn1)CC21CC1` (centres unmarked) [Compound 342, N-(2-Hydroxy-ethyl)-N-methyl-1-[5-[3-[(methylsulfinyl)-methyl]-phenyl]-pyrimidin-2-yl]-spiro[1,2-dihydro-indole-3,1′-cyclopropane]-6-carboxylic acid amide], with less than 0.1 µM; and `CCNc1ccc(F)c(-c2cnc(N3CC4(CC4)c4ccc(C(=O)N(C)CCO)cc43)nc2)c1` [Compound 343, 1-[5-(5-Ethylamino-2-fluoro-phenyl)-pyrimidin-2-yl]-N-(2-hydroxy-ethyl)-N-methyl-spiro[1,2-dihydro-indole-3,1′-cyclopropane]-6-carboxylic acid amide], with less than 0.1 µM; and `C[S+]([O-])c1ccnc(-c2cnc(N3CC4(CC4)c4ccc(C(=O)N5CCOCC5)cc43)nc2)c1` (centres unmarked) [Compound 344, (1′-(5-(4-(methylsulfinyl)pyridin-2-yl)pyrimidin-2-yl)spiro[cyclopropane-1,3′-indolin]-6′-yl)(morpholino)methanone], with less than 0.1 µM. Next, `CS(=O)(=O)c1ccnc(-c2cnc(N3CC4(CC4)c4ccc(C(=O)N5CCOCC5)cc43)nc2)c1` [Compound 345, [1-[5-(4-Methylsulfonyl-pyridin-2-yl)-pyrimidin-2-yl]-spiro[1,2-dihydro-indole-3,1′-cyclopropane]-6-yl]-morpholin-4-yl-methanone]: less than 0.1 µM. Take `CC(=O)Nc1ccnc(-c2cnc(N3CC4(CC4)c4ccc(C(=O)N5CCOCC5)cc43)nc2)c1` [Compound 346, N-[2-[2-[6-(Morpholine-4-carbonyl)-spiro[1,2-dihydro-indole-3,1′-cyclopropane]-1-yl]-pyrimidin-5-yl]-pyridin-4-yl]-acetamide]: the IC50 was less than 0.1 µM. Next, `CN(CCO)C(=O)c1ccc2c(c1)N(c1ncc(-c3cc(CO)cs3)cn1)CC21CC1` [Compound 347, N-(2-Hydroxy-ethyl)-1-[5-[4-(hydroxymethyl)-thiophen-2-yl]-pyrimidin-2-yl]-N-methyl-spiro[1,2-dihydro-indole-3,1′-cyclopropane]-6-carboxylic acid amide]: less than 0.1 µM. Then `CN(CCO)C(=O)c1ccc2c(c1)N(c1ncc(-c3cc(C(N)=O)cs3)cn1)CC21CC1` [Compound 348, 1-[5-(4-Carbamoyl-thiophen-2-yl)-pyrimidin-2-yl]-N-(2-hydroxy-ethyl)-N-methyl-spiro[1,2-dihydro-indole-3,1′-cyclopropane]-6-carboxylic acid amide], with less than 0.1 µM.

`CN(CCO)C(=O)c1ccc2c(c1)N(c1ncc(-c3nc(CC#N)cs3)cn1)CC21CC1` [Compound 350, 1-[5-[4-(Cyano-methyl)-thiazol-2-yl]-pyrimidin-2-yl]-N-(2-hydroxy-ethyl)-N-methyl-spiro[1,2-dihydro-indole-3,1′-cyclopropane]-6-carboxylic acid amide] yielded an IC50 of less than 0.1 µM. Then `O=C(c1ccc2c(c1)N(c1ncc(-c3cc(C4(O)CC4)ccn3)cn1)CC21CC1)N1CCOCC1` [Compound 351, [1-[5-[4-(1-Hydroxy-cyclopropyl)-pyridin-2-yl]-pyrimidin-2-yl]-spiro[1,2-dihydro-indole-3,1′-cyclopropane]-6-yl]-morpholin-4-yl-methanone], with less than 0.1 µM; and `O=C(c1ccc2c(c1)N(c1ncc(-c3ccccc3F)cn1)CC21CC1)N1CCO[C@H](CO)C1` [Compound 354, [1-[5-(2-Fluorophenyl)-pyrimidin-2-yl]-spiro[1,2-dihydro-indole-3,1′-cyclopropane]-6-yl]-[(2S)-2-(hydroxymethyl)-morpholin-4-yl]-methanone], with less than 0.1 µM; and `C[S+]([O-])c1ccc(F)c(-c2cnc(N3CC4(CC4)c4ccc(C(=O)N5CCOCC5)cc43)nc2)c1` (centres unmarked) [Compound 355, [1-[5-[2-Fluoro-5-(methylsulfinyl)-phenyl]-pyrimidin-2-yl]-spiro[1,2-dihydro-indole-3,1′-cyclopropane]-6-yl]-morpholin-4-yl-methanone], with less than 0.1 µM. As for `Nc1ccnc(-c2cnc(N3CC4(CC4)c4ccc(C(=O)N5C[C@H]6C[C@@H]5CN6)cc43)nc2)c1` [Compound 356, [1-[5-(4-Amino-pyridin-2-yl)-pyrimidin-2-yl]-spiro[1,2-dihydro-indole-3,1′-cylcopropane]-6-yl]-[(1R,4R)-2,5-diazabicyclo[2.2.1]heptan-2-yl]-methanone], the IC50 was less than 0.1 µM. Next, `CN(CCO)C(=O)c1ccc2c(c1)N(c1ncc(-c3nc(CO)cs3)cn1)CC21CC1` [Compound 357, N-(2-Hydorxy-ethyl)-1-[5-[4-(hydroxymethyl)-thiazol-2-yl]-pyrimidin-2-yl]-N-methyl-spiro[1,2-dihydro-indole-3,1′-cyclopropane]-6-carboxylic acid amide]: less than 0.1 µM; `CC(=O)Oc1cccc(-c2cnc(N3CC4(CC4)c4ccc(C(=O)N(C)CCO)cc43)nc2)c1` [Compound 358, Acetic acid [3-[2-[6-[(2-hydroxy-ethyl)-methyl-carbamoyl]-spiro[1,2-dihydro-indole-3,1′-cyclopropane]-1-yl]-pyrimidin-5-yl]-phenyl]ester]: less than 0.1 µM. Turning to `CN(CCO)C(=O)c1ccc2c(c1)N(c1ncc(-c3cc(N4CCCC4)ccc3F)cn1)CC21CC1` [Compound 359, 1-[5-(2-Fluoro-5-pyrrolidin-1-yl-phenyl)-pyrimidin-2-yl]-N-(2-hydroxy-ethyl)-N-methyl-spiro[1,2-dihydro-indole-3,1′-cyclopropane]-6-carboxylic acid amide], the IC50 was less than 0.1 µM.

In the case of `CNC(=O)CN(C)C(=O)c1ccc2c(c1)N(c1ncc(-c3cc(C)ccn3)cn1)CC21CC1` [Compound 360, N-Methyl-N-(methylcarbamoyl-methyl)-1-[5-(4-methyl-pyridin-2-yl)-pyrimidin-2-yl]-spiro[1,2-dihydro-indole-3,1′-cyclopropane]-6-carboxylic acid amide], the IC50 was less than 0.1 µM. For `COc1cc(C2CC2)cc(-c2cnc(N3CC4(CC4)c4ccc(C(=O)N(C)CCO)cc43)nc2)n1` [Compound 361, 1′-(5-(4-cyclopropyl-6-methoxypyridin-2-yl)pyrimidin-2-yl)-N-(2-hydroxyethyl)-N-methylspiro[cyclopropane-1,3′-indoline]-6′-carboxamide], the IC50 lay within 0.1 to 1 µM.
